Assay results taken from patent US6281169A, “Aqueous suspensions of low solubility and low stability water additives” (BioLab Services, Inc., priority 1999, dated 2001).
Read-outs that look alike come from different tables or passages of the source.

What was measured:
[1] = system: bacteria; assay: Biocidal efficacy comparison, both bacteria (in words); format: cell-based, E. coli; Strep. faecalis; settings: compared with NaOCl, predissolved BCDMH or other Examples
Method: (§1) The biocidal efficacy of dissolved BCDMH was compared to sodium hypochlorite using AOAC Official Method 965.13 (1995 Edition)--Disinfectant (Water) for Swimming Pools against the gram-negative bacteria E. coli (ATCC #11229) and the gram-positive bacteria Strep. faecalis (ATCC #6569). The desired nominal biocide dosage (0, 0.1, 0.3, 0.6 or 0.9 mg/l total halogen expressed as chlorine) was established by dilution from freshly prepared (filtered) standardized stock solutions of either BCDMH Powder or NaOCl into phosphate buffered water (approximate pH of 7.5 as described in the method). An inoculum was standardized to yield 2×10^8 organisms per ml. One ml of the standardized inoculum was mixed into 199 ml of phosphate buffered water containing the desired dosage of biocide. One-ml aliquots were removed at specific times (30, 60, 120 and 180 seconds after inoculum addition) and added, with mixing, into separate tubes containing 9 ml of thiosulfate solution to neutralize the oxidizing halogen. Five 1 ml aliquots of from each neutralization tube were then added and mixed into five separate tubes each containing 9 ml of subculture broth. After 48 hours of incubation, these were examined to determine growth or no growth in the subculture medium.
The efficacy of this preparation was tested as described in Example 1 except that no stock solution of the preparation was made. […]

[2] = system: Strep. faecalis (ATCC #6569); assay: Biocidal efficacy, AOAC Official Method 965.13, gram-positive bacteria; format: cell-based
Method: as §1, with “medium. […]” for “medium.”

[3] = system: E. coli (ATCC #11229); assay: Biocidal efficacy, AOAC Official Method 965.13, gram-negative bacteria; format: cell-based
Method: as §1, with “medium. […]” for “medium.”

[4] = cited from earlier work
[5] = background; cited from earlier work
[6] = cited from earlier work; for hydrolytic stability (in words): background
[7] = 0.1 ppm total halogen as Cl2, 30 sec
[8] = 0.1 ppm total halogen as Cl2, 60 sec
[9] = 0.1 ppm total halogen as Cl2, 120 sec
[10] = 0.1 ppm total halogen as Cl2, 180 sec
[11] = 0.3 ppm total halogen as Cl2, 30 sec
[12] = 0.3 ppm total halogen as Cl2, 60 sec
[13] = 0.3 ppm total halogen as Cl2, 120 sec
[14] = 0.3 ppm total halogen as Cl2, 180 sec
[15] = 0.6 ppm total halogen as Cl2, 30 sec
[16] = 0.6 ppm total halogen as Cl2, 60 sec
[17] = 0.6 ppm total halogen as Cl2, 120 sec
[18] = 0.6 ppm total halogen as Cl2, 180 sec
[19] = 0.9 ppm total halogen as Cl2, 30 sec
[20] = 0.9 ppm total halogen as Cl2, 60 sec
[21] = 0.9 ppm total halogen as Cl2, 120 sec
[22] = 0.9 ppm total halogen as Cl2, 180 sec

[Na+].[O-]Cl [NaOCl, sodium hypochlorite]
biocidal efficacy (in words) [1]: approximately the same | Number of Tubes Exhibiting Growth [2, 7]: 5 Tubes (Out of 5) | Number of Tubes Exhibiting Growth [2, 8]: 5 Tubes (Out of 5) | Number of Tubes Exhibiting Growth [2, 9]: 5 Tubes (Out of 5) | Number of Tubes Exhibiting Growth [2, 10]: 5 Tubes (Out of 5) | Number of Tubes Exhibiting Growth [2, 11]: 5 Tubes (Out of 5) | Number of Tubes Exhibiting Growth [2, 12]: 5 Tubes (Out of 5) | Number of Tubes Exhibiting Growth [2, 13]: 5 Tubes (Out of 5) | Number of Tubes Exhibiting Growth [2, 14]: 5 Tubes (Out of 5) | Number of Tubes Exhibiting Growth [2, 15]: 0 Tubes (Out of 5) | Number of Tubes Exhibiting Growth [2, 16]: 0 Tubes (Out of 5) | Number of Tubes Exhibiting Growth [2, 17]: 0 Tubes (Out of 5) | Number of Tubes Exhibiting Growth [2, 18]: 0 Tubes (Out of 5) | Number of Tubes Exhibiting Growth [3, 7]: 5 Tubes (Out of 5) | Number of Tubes Exhibiting Growth [3, 8]: 5 Tubes (Out of 5) | Number of Tubes Exhibiting Growth [3, 9]: 5 Tubes (Out of 5) | Number of Tubes Exhibiting Growth [3, 10]: 5 Tubes (Out of 5) | Number of Tubes Exhibiting Growth [3, 11]: 5 Tubes (Out of 5) | Number of Tubes Exhibiting Growth [3, 12]: 5 Tubes (Out of 5) | Number of Tubes Exhibiting Growth [3, 13]: 3 Tubes (Out of 5) | Number of Tubes Exhibiting Growth [3, 14]: 1 Tubes (Out of 5) | Number of Tubes Exhibiting Growth [3, 15]: 0 Tubes (Out of 5) | Number of Tubes Exhibiting Growth [3, 16]: 0 Tubes (Out of 5) | Number of Tubes Exhibiting Growth [3, 17]: 0 Tubes (Out of 5) | Number of Tubes Exhibiting Growth [3, 18]: 0 Tubes (Out of 5)

O=c1[nH]c(=O)[nH]c(=O)[nH]1 [CYA, S-triazine-2,4,6-trione]
solubility in water ([4]; 20° C.): approximately 2700 ppm | dissolving behaviour (in words) [5]: fairly tough to dissolve

CC1(C)C(=O)N(Cl)C(=O)N1Br [BCDMH, bromochlorodimethylhydantoin]
hydrolytic stability (in words) [6]: not hydrolytically stable | biocidal efficacy (in words) [1]: approximately the same | Number of Tubes Exhibiting Growth [2, 7]: 5 Tubes (Out of 5) | Number of Tubes Exhibiting Growth [2, 8]: 5 Tubes (Out of 5) | Number of Tubes Exhibiting Growth [2, 9]: 5 Tubes (Out of 5) | Number of Tubes Exhibiting Growth [2, 10]: 5 Tubes (Out of 5) | Number of Tubes Exhibiting Growth [2, 11]: 5 Tubes (Out of 5) | Number of Tubes Exhibiting Growth [2, 12]: 5 Tubes (Out of 5) | Number of Tubes Exhibiting Growth [2, 13]: 4 Tubes (Out of 5) | Number of Tubes Exhibiting Growth [2, 14]: 1 Tubes (Out of 5) | Number of Tubes Exhibiting Growth [2, 15]: 0 Tubes (Out of 5) | Number of Tubes Exhibiting Growth [2, 16]: 0 Tubes (Out of 5) | Number of Tubes Exhibiting Growth [2, 17]: 0 Tubes (Out of 5) | Number of Tubes Exhibiting Growth [2, 18]: 0 Tubes (Out of 5) | Number of Tubes Exhibiting Growth [2, 19]: 0 Tubes (Out of 5) | Number of Tubes Exhibiting Growth [2, 20]: 0 Tubes (Out of 5) | Number of Tubes Exhibiting Growth [2, 21]: 0 Tubes (Out of 5) | Number of Tubes Exhibiting Growth [2, 22]: 0 Tubes (Out of 5) | water solubility ([4]; 20° C.): approximately 1,500 mg/liter | dissolving behaviour (in words) [5]: dissolves slowly | Number of Tubes Exhibiting Growth [3, 7]: 5 Tubes (Out of 5) | Number of Tubes Exhibiting Growth [3, 8]: 5 Tubes (Out of 5) | Number of Tubes Exhibiting Growth [3, 9]: 5 Tubes (Out of 5) | Number of Tubes Exhibiting Growth [3, 10]: 5 Tubes (Out of 5) | Number of Tubes Exhibiting Growth [3, 11]: 5 Tubes (Out of 5) | Number of Tubes Exhibiting Growth [3, 12]: 5 Tubes (Out of 5) | Number of Tubes Exhibiting Growth [3, 13]: 5 Tubes (Out of 5) | Number of Tubes Exhibiting Growth [3, 14]: 5 Tubes (Out of 5) | Number of Tubes Exhibiting Growth [3, 15]: 0 Tubes (Out of 5) | Number of Tubes Exhibiting Growth [3, 16]: 0 Tubes (Out of 5) | Number of Tubes Exhibiting Growth [3, 17]: 0 Tubes (Out of 5) | Number of Tubes Exhibiting Growth [3, 18]: 0 Tubes (Out of 5) | Number of Tubes Exhibiting Growth [3, 19]: 0 Tubes (Out of 5) | Number of Tubes Exhibiting Growth [3, 20]: 0 Tubes (Out of 5) | Number of Tubes Exhibiting Growth [3, 21]: 0 Tubes (Out of 5) | Number of Tubes Exhibiting Growth [3, 22]: 0 Tubes (Out of 5)

CCNc1nc(Cl)nc(NC(C)(C)C)n1 [terbuthylazine, 2-(tert-butylamino)-4-chloro-6-(ethylamino)-s-triazine]
hydrolytic stability (in words) [6]: good hydrolytic stability | degradation half life ([6]; pH 5): 73 days | degradation half life ([6]; pH 9): 194 days | solubility in water ([4]; 25° C.): 11.5 ppm

O=[N+]([O-])C(Br)=Cc1ccco1 [BNEF, 2-(2-bromo-2-nitro)-ethenyl furan]
decomposition half-life ([6]; pH 4, 50° C.): 2.33 h | decomposition half-life ([6]; pH 4, 60° C.): 1.77 h | decomposition half-life ([6]; pH 4, 70° C.): 0.817 h | decomposition half-life ([6]; pH 5, 25° C.): 71 h | decomposition half-life ([6]; pH 6, 25° C.): 37 h | decomposition half-life ([6]; pH 9, 25° C.): 6 h | solubility in water ([4]; 25° C.): 300 ppm
